The structures appear in SMILES notation. Activity calls are given as the source filed them. The rule behind the calls is not given here.

A short description of data set [1]: Half life in CD-1 mouse at 3 mg/kg, iv. As to conditions: in vivo; for half-life: CD-1, mouse. The format is ADME, organism-based.
The nature of data set [2]: AUC in CD-1 mouse at 10 mg/kg, po. The data set is classed as ADME, organism-based. As to conditions: in vivo.
A further data set relates to MCF7. Briefly: Antiproliferative activity against human MCF7 cells assessed as reduction in cell proliferation measured after 5 days by Cell-titer-Glo assay. The data set is classed as functional, cell-based. To be noted: MCF7, 120 h.
The nature of data set [3]: Fraction unbound in 10% CD-1 mouse plasma at 10 uM measured after 20 to 24 hrs by equlibrium dialysis method. The data set is classed as ADME, cell-free. To be noted: 10% plasma.
Data set [4] in a line: Volume of distribution at steady state in CD-1 mouse at 3 mg/kg, iv. The data set is classed as ADME, organism-based. As to conditions: in vivo; for Vd: CD-1, mouse, read-out: Vdss.
A short description of data set [5]: Oral bioavailability in CD-1 mouse at 10 mg/kg. To be noted: in vivo; for bioavailability: CD-1, mouse. The data set is classed as ADME, organism-based.
For data set [6], the system named is Rattus norvegicus. Briefly: In vivo antagonist activity at estrogen receptor in CD-IGS rat assessed as inhibition of estrogen-stimulated uterine growth at 1 mg/kg, po administered daily 15 mins before estrogen treatment for 3 days and measured 24 hrs post last dose relative to ARN-180. The format is functional.
A further data set has as its target T1, Estrogen receptor (Homo sapiens, UniProt P03372).
T1 sequence (P03372 whole entry): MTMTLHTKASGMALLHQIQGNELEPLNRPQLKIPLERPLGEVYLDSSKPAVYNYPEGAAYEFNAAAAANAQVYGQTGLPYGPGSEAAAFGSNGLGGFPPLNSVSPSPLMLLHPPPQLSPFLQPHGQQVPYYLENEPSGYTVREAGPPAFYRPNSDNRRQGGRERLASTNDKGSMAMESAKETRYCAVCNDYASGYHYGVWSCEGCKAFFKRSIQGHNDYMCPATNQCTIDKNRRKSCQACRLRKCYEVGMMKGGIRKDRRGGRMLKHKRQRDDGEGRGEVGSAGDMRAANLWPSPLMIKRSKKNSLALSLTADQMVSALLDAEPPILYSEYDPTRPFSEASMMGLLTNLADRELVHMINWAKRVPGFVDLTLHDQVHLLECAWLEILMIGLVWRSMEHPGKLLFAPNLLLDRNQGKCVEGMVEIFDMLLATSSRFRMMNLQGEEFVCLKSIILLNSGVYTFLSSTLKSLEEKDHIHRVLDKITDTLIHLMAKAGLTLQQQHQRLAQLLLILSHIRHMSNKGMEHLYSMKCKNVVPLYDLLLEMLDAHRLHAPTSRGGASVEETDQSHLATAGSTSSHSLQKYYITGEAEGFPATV
Briefly: Induction of ERalpha degradation in human MCF7 cells in phenol red free RPMI medium containing 5% charcoal-stripped FBS incubated for 4 hrs by IRDye 800CW/DRAQ5 dye based in-cell Western assay.

The next data set concerns Homo sapiens. Briefly: Antitumor activity against human TamR1 cells xenografted in nu/nu mouse assessed as tumor regression at 30 mg/kg, po administered daily for 4 weeks. The format is functional, organism-based. (In xenograft studies the graft and the host belong to different species.)
The nature of data set [7]: Plasma clearance in CD-1 mouse at 3 mg/kg, iv. The data set is classed as ADME, organism-based.
Data set [8] relates to Rattus norvegicus. Briefly: In vivo antagonist activity at estrogen receptor in CD-IGS rat assessed as reduction in 17alpha-ethynylestradiol-stimulated increase in uterine wet weight at 1 mg/kg, po administered daily 15 mins before 17alpha-ethynylestradiol treatment for 3 days and measured 24 hrs post last dose relative to basal level. The format is functional.
The nature of data set [9]: AUC in CD-1 mouse at 10 mg/kg, po administered at truncated timecourse (1, 4, 24 hrs). The format is ADME, organism-based. As to conditions: in vivo.
The nature of data set [10]: Oral bioavailability in CD-1 mouse at 10 mg/kg administered at truncated timecourse (1, 4, 24 hrs). The data set is classed as ADME, organism-based. As to conditions: in vivo.
Data set [11] can be described thus: Volume of distribution at steady state in CD-1 mouse at 2 mg/kg, iv administered as cassette dose. The data set is classed as ADME, organism-based. As to conditions: in vivo, read-out: Vdss.
Data set [12] in a line: Plasma clearance in CD-1 mouse at 2 mg/kg, iv administered as cassette dose. The data set is classed as ADME, organism-based.
Data set [13] in a line: Half life in CD-1 mouse at 2 mg/kg, iv administered as cassette dose. To be noted: in vivo. The data set is classed as ADME, organism-based.

Usually half-life stands for the time in which the quantity being followed falls by half. Low readings indicate rapid decline, high ones slow decline. One may read the AUC as the area under the concentration-time curve, a measure of exposure. The term IC50 denotes the concentration that inhibits the measured activity by half. Broadly, the fraction unbound is free concentration divided by total concentration. High values mean much free substance, low ones little free substance. For orientation: bioavailability means the share of a dose that reaches the circulation, judged against a reference dose that is usually intravenous. A high value points to good availability. As usually defined, the EC50 is the concentration needed to bring the measured effect to its halfway point. What is called clearance is the volume of plasma or blood freed of the substance per unit of time. `COc1ccc(/C(=C(\c2ccc(/C=C/C(=O)O)cc2)c2ccc3scnc3c2)C2CCC2)c(Cl)c1`: in data set [1], the half-life is 3.2 h. Further, in data set [2] (CD-1, mouse, read-out: AUC), the AUC amounted to 75000 ng·h/mL. For the same compound, the concentration for half-maximal inhibition (IC50) in the data set with MCF7 amounted to 0.9 nM. The compound also yielded a fraction unbound at 10 µM in [3] of 0.002. Moreover, the Vd in data set [4] worked out at 0.3 L/kg. Further, in data set [5], the bioavailability was 80%. In addition, the Efficacy in the data set on Rattus norvegicus [6] is listed as 94%. Besides, a half-maximal effect at Estrogen receptor (EC50) was put at 0.4 nM. Further, the outcome in the data set with Homo sapiens was Active. Further, in data set [7], the clearance stood at 1.8 mL/min/kg.
Regarding `O=C(O)/C=C/c1ccc(/C(=C(\c2ncc(C(F)(F)F)cc2Cl)C2CCC2)c2ccc3scnc3c2)cc1`, the IC50 in the data set with MCF7 came out at 2.9 nM. Further, the Efficacy in the data set with Rattus norvegicus [6] stood at 92%. Further, at Estrogen receptor, the EC50 turned out to be 1.1 nM.
Consider `O=C(O)/C=C/c1ccc(/C(=C(\c2ccc(C(F)(F)F)cc2Cl)C2CCC2)c2ccc(N3CCOCC3)cc2)cc1`, for which the IC50 in the data set with MCF7 amounted to 6.9 nM. In addition, in the data set with Rattus norvegicus [8], the Efficacy is reported as 93%. This compound returned an EC50 on Estrogen receptor of 1.9 nM.
Regarding `COc1ccc(/C(=C(\c2ccc(/C=C/C(=O)O)cc2)c2ccc(-c3cncs3)cc2)C2CCC2)c(Cl)c1`, the IC50 in the data set on MCF7 turned out to be 1.8 nM. In [9], this compound had an exposure (AUC) at 24 h of 3800 ng·h/mL. Besides, the fraction unbound at 10 µM in data set [3] was found to be 0.001. Moreover, in the data set with Rattus norvegicus [6], the Efficacy is 93%. At Estrogen receptor, this compound yielded an EC50 of 0.8 nM.
In turn, `COc1ccc(/C(=C(\c2ccc(/C=C/C(=O)O)cc2)c2ccc(-c3cn[nH]c3)cc2)C2CCC2)c(Cl)c1` showed a bioavailability in [10] of 52%. In [11], the Vd is 0.6 L/kg. Also, the IC50 in the data set on MCF7 was 5.1 nM. The AUC at 24 h in data set [9] was 18000 ng·h/mL. In data set [3], this compound returned a fraction unbound at 10 µM of 0.002. Also, the clearance in data set [12] came out at 4.8 mL/min/kg. Besides, the Efficacy in the data set with Rattus norvegicus [6] came out at 93%. The compound further came in with a half-maximal effective concentration (EC50) at Estrogen receptor of 1.5 nM. The half-life in [13] is 3 h.
`N#Cc1cc(Cl)ccc1/C(=C(\c1ccc(/C=C/C(=O)O)cc1)c1ccc(-c2cncs2)cc1)C1CCC1`: the concentration for half-maximal inhibition (IC50) in the data set on MCF7 is 4.3 nM. The Efficacy in the data set on Rattus norvegicus [8] came out at 94%. Also, the half-maximal effective concentration (EC50) on Estrogen receptor is 1.9 nM.
For `N#Cc1ccc(/C(=C(\c2ccc(/C=C/C(=O)O)cc2)c2ccc(-c3cn[nH]c3)cc2)C2CCC2)c(Cl)c1`, the IC50 in the data set with MCF7 is 2.2 nM. In addition, in the data set on Rattus norvegicus [8], the Efficacy stood at 94%. This compound registered a concentration for a half-maximal effect (EC50) at Estrogen receptor of 0.7 nM.
`O=C(O)/C=C/c1ccc(/C(=C(\c2ccc(F)cc2Cl)C2CCC2)c2ccc(N3CCOCC3)cc2)cc1`: in the data set on MCF7, the IC50 was 5 nM. For the same compound, the Efficacy in the data set with Rattus norvegicus [6] was 90%. In addition, the concentration giving a half-maximal response (EC50) at Estrogen receptor worked out at 1.6 nM.
For `N#Cc1cc(Cl)ccc1/C(=C(\c1ccc(/C=C/C(=O)O)cc1)c1ccc2scnc2c1)C1CCC1`, the IC50 with MCF7 was 0.9 nM. Also, the Efficacy with Rattus norvegicus [6] amounted to 91%. Further, the response at Estrogen receptor was half-maximal at 0.4 nM (EC50).
The matching figures for `O=C(O)/C=C/c1ccc(/C(=C(\c2ccc(F)cc2Cl)C2CCC2)c2ccc3scnc3c2)cc1`: 3 nM, 91% and 0.7 nM.
Consider `COc1ccc(/C(=C(\c2ccc(/C=C/C(=O)O)cc2)c2ccc(N3CCOCC3)cc2)C2CCC2)c(Cl)c1`, for which the half-life in data set [1] was 2.9 h. Moreover, the area under the curve (AUC) in data set [2] (CD-1, mouse, read-out: AUC) turned out to be 40000 ng·h/mL. Moreover, the IC50 with MCF7 was determined as 2.1 nM. Moreover, in data set [3], the free fraction (fraction unbound) at 10 µM is 0.004. In addition, in data set [4], the Vd came to 1.5 L/kg. The compound further had a bioavailability in [5] of over 100%. Moreover, the Efficacy with Rattus norvegicus [6] turned out to be 92%. Moreover, the 50% effective concentration (EC50) on Estrogen receptor is 0.6 nM. In addition, in the data set with Homo sapiens, the result was Active. For the same compound, in data set [7], the clearance was 5.1 mL/min/kg.
Regarding `O=C(O)/C=C/c1ccc(/C(=C(\c2ccccc2)C2CCC2)c2ccc(-c3cncs3)cc2)cc1`, in the data set on MCF7, the IC50 was determined as 9.2 nM. Besides, in the data set with Rattus norvegicus [8], the Efficacy came out at 89%. Also, the half-maximal effective concentration (EC50) at Estrogen receptor was 1.7 nM.
For `O=C(O)/C=C/c1ccc(/C(=C(\c2ccc(F)cc2Cl)C2CCC2)c2ccc(-c3cn[nH]c3)cc2)cc1`, in the data set with MCF7, the IC50 worked out at 2.9 nM. For the same compound, in the data set on Rattus norvegicus [6], the Efficacy is listed as 91%. Further, the concentration giving a half-maximal response (EC50) on Estrogen receptor was found to be 1.1 nM.
For the compound `N#Cc1cc(Cl)ccc1/C(=C(\c1ccc(/C=C/C(=O)O)cc1)c1ccc(-c2cn[nH]c2)cc1)C1CCC1`, the IC50 with MCF7 is 4.4 nM. Besides, in the data set with Rattus norvegicus [8], the Efficacy is given as 94%. At Estrogen receptor, this compound had a half-maximal effective concentration (EC50) of 1.1 nM.
In data set [1], `CC/C(=C(/c1ccc(/C=C/C(=O)O)cc1)c1ccc2[nH]ncc2c1)c1ccc(F)cc1Cl` [BRILANESTRANT] showed a half-life of 4.6 h. For the same compound, the free fraction (fraction unbound) at 10 µM in data set [3] is 0.011.
As a reminder, the Vdss is a proportionality between amount in the body and measured concentration, not a real space. A high value points to wide distribution into tissue. `COc1ccc(/C(=C(\c2ccc(/C=C/C(=O)O)cc2)c2ccc3nccn3c2)C2CCC2)c(Cl)c1` showed a t1/2 in [1] (mouse) of 1.2 h. For the same compound, the area under the curve (AUC) in data set [2] (mouse) stood at 8400 ng·h/mL. Moreover, the IC50 in the data set on MCF7 amounted to 0.7 nM. Also, the free fraction (fraction unbound) at 10 µM in data set [3] was determined as 0.015. This compound also came in with a Vdss in data set [4] (mouse) of 0.9 L/kg. In [5] (mouse), the F is 69%. Further, the Efficacy with Rattus norvegicus [6] is listed as 93%. This compound also had an EC50 on Estrogen receptor of 0.3 nM. The result in the data set on Homo sapiens was inactive.
As for `O=C(O)/C=C/c1ccc(/C(=C(\c2ccc(F)cc2Cl)C2CCC2)c2ccc3nccn3c2)cc1`, the IC50 with MCF7 came out at 4.4 nM. Also, in the data set with Rattus norvegicus [8], the Efficacy is on record as 90%. Also, the 50% effective concentration (EC50) at Estrogen receptor came to 1.5 nM.
Taken in the same sequence, the figures for `O=C(O)/C=C/c1ccc(/C(=C(\c2ccc(C(F)(F)F)cc2Cl)C2CCC2)c2ccc3scnc3c2)cc1` were 2.6 nM, 93% and 1 nM.

The values are drawn from ChEMBL document CHEMBL4330100, “Selective estrogen receptor degraders with novel structural motifs induce regression in a tamoxifen-resistant breast cancer xenograft” (Bioorg Med Chem Lett, 2019).
